Laboratory results from publication PMC7363588, “Mapping of the FGF14:Nav1.6 complex interface reveals FLPK as a functionally active peptide modulating excitability” (Physiological Reports, 2020).
Several values for one entry are separate records, joined by “and”; a condition that tells them apart may be missing. Equal entries are not always repeated. Entries after “also recorded” stand apart in the source; their conditions may differ. Peptide text beside a SMILES is read from it.

Molecular target: T1, Nav1.6 (Homo sapiens, UniProt Q9UQD0)
T1 construct: expressed in transfected cells
Experiment: Whole-cell patch-clamp, HEK-Nav1.6 cells expressing GFP
Format: cell-based
Conditions: 50 μM FLPK
Protocol: HEK293 cells were maintained in DMEM and F‐12 (Invitrogen, Carlsbad, CA), supplemented with 0.05% glucose, 0.5 mM pyruvate, 10% fetal bovine serum, 100 units/ml penicillin, and 100 µg/ml streptomycin (Invitrogen), and incubated at 37 °C with 5% CO2. HEK293 cells stably expressing the human Nav1.6 channel (hereafter referred to as HEK‐Nav1.6 cells) were maintained similarly except for the addition of 500 μg/ml G418 (Invitrogen) to maintain stable Nav1.6 expression. Cells were transfected at 80%–90% confluence with equal amount (1 μg each) of plasmid pairs using Lipofectamine 2000 (Invitrogen) according to manufacturer's instructions. HEK‐Nav1.6 cells were washed and replated at very low density prior to electrophysiological recordings (Ali et al., 2016, 2018; Scala et al., 2018; Wadsworth et al., 2019).
HEK‐Nav1.6 cells transfected with GFP or FGF14‐GFP were plated at low density on glass cover slips for 3–4 hr and subsequently transferred to the recording chamber. Recordings were performed at room temperature (20–22°C) 24 hr posttransfection using a MultiClamp 700B amplifier (Molecular Devices, Sunnyvale, CA). The composition of recording solutions consisted of the following salts; extracellular (mM): 140 NaCl, 3 KCl, 1 MgCl2, 1 CaCl2, 10 HEPES, 10 glucose, pH 7.3; intracellular (mM): 130 CH3O3SCs, 1 EGTA, 10 NaCl, 10 HEPES, pH 7.3. Membrane capacitance and series resistance were estimated by the dial settings on the amplifier and compensated for electronically by 70%–75%. Data were acquired at 20 kHz and filtered at 5 kHz prior to digitization and storage. All experimental parameters were controlled by Clampex 9.2 software (Molecular Devices) and interfaced to the electrophysiological equipment using a Digidata 1,200 analog‐digital interface (Molecular Devices). Voltage‐dependent inward currents for HEK‐Nav1.6 cells were evoked by depolarization to test potentials between −100 mV and +60 mV from a holding potential of −70 mV followed by a voltage prestep pulse of −120 mV (Nav1.6). Steady‐state (fast) inactivation of Nav channels was measured with a paired‐pulse protocol. From the holding potential, cells were stepped to varying test potentials between −120 mV (Nav1.6) and +20 mV (prepulse) prior to a test pulse to −20 mV.
Current densities were obtained by dividing Na^+ current (INa) amplitude by membrane capacitance. Current–voltage relationships were generated by plotting current density as a function of the […]. Conductance (GNa) was calculated by the following equation: GNa=INa/Vm‐Erev where INa ^+ is the current amplitude at voltage Vm, and Erev is the Na^+ reversal potential.
Activation curves were derived by plotting normalized GNa as a function of test potential and fitted using the Boltzmann equation: GNa/GNa,Max=1/1+eVa‐Em/k where GNa,Max is the maximum conductance, Va is the membrane potential of half‐maximal activation, Vm is the membrane voltage and k is the slope factor.
The membrane potential of half‐maximal activation, Em is the membrane voltage and k is the slope factor. For steady‐state inactivation, normalized current amplitude (INa/INa,Max) at the test potential was plotted as a function of prepulse potential (Vm) and fitted using the Boltzmann equation: INa/INa,Max=1/1+e‐Vh‐Em/k where Vh is the potential of half‐maximal inactivation, Em is the membrane voltage, and k is the slope factor.
To test whether FLKP had any modulatory effects on Nav1.6‐mediated Na^+ currents, we used whole‐cell patch‐clamp electrophysiology in HEK293 cells stably expressing Nav1.6 (HEK‐Nav1.6) that were transiently transfected with either GFP (HEK‐Nav1.6 GFP) or FGF14‐1b‐GFP (HEK‐Nav1.6 FGF14‐GFP); each group was either treated with FLPK (50 μM from a stock solution dissolved in DMSO) or 0.1% DMSO alone (vehicle) (Figure 5a‐c). […]

T1 sequence (Q9UQD0 whole entry): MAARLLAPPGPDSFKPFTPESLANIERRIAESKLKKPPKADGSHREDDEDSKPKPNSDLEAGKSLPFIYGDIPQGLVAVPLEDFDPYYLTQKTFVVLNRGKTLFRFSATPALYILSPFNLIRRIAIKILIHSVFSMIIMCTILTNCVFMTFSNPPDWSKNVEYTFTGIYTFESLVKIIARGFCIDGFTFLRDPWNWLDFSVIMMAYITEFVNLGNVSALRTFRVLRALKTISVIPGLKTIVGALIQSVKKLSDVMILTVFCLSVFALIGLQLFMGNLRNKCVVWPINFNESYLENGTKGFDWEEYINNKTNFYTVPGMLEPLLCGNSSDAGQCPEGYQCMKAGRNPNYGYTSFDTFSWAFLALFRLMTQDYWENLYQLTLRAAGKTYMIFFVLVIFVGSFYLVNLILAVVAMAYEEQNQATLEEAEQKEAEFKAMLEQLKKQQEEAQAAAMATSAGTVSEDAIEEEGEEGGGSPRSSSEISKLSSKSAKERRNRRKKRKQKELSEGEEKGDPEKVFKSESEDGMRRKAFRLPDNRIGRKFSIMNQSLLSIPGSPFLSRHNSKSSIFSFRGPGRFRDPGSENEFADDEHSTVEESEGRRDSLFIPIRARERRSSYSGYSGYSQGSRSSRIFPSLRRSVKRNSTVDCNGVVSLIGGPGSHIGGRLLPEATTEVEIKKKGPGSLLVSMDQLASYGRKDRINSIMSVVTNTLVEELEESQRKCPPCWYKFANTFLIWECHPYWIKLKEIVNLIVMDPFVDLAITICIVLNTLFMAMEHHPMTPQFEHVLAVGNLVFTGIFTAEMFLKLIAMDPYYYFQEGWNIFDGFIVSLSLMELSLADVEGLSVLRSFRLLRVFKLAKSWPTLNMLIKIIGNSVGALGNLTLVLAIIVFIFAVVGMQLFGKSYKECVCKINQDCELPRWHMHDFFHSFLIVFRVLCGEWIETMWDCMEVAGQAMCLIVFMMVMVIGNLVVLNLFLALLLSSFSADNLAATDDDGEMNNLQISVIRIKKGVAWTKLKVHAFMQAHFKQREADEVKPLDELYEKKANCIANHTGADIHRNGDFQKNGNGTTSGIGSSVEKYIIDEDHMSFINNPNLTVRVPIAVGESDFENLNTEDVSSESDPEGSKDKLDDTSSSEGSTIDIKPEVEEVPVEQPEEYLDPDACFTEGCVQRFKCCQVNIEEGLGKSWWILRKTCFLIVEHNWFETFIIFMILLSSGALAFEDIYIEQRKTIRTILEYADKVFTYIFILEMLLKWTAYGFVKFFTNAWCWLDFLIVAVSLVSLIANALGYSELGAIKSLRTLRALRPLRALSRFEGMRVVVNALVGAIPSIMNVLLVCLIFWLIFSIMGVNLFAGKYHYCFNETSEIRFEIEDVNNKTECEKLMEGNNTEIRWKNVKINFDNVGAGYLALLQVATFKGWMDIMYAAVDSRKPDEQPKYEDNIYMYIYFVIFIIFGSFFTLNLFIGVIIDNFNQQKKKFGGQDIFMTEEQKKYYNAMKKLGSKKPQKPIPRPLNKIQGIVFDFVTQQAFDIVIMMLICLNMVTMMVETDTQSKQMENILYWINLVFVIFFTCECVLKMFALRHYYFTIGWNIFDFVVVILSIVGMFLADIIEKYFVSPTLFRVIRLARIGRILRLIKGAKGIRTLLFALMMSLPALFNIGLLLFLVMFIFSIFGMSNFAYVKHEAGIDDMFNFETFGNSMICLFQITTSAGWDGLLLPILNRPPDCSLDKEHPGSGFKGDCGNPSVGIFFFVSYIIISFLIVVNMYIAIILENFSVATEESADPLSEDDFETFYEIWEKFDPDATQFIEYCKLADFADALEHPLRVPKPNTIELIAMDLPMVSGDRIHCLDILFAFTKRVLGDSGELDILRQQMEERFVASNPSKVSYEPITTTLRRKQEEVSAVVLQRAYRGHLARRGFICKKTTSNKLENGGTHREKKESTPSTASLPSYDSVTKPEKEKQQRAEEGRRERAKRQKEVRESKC

CC(=O)N[C@@H](Cc1ccccc1)C(=O)N[C@@H](CC(C)C)C(=O)N1CCC[C@H]1C(=O)N[C@@H](CCCCN)C(N)=O [FLPK] (Ac-FLPK-NH2)
effect on Nav1.6 currents without FGF14 (HEK-Nav1.6 GFP vs 0.1% DMSO): not statistically different; also recorded: no measurable effects in cells expressing Nav1.6 alone
Tau (τ), decay time constant of I Na (HEK-Nav1.6 GFP, at −10 mV, mean ± SEM (n = 12), DMSO 1.0 ± 0.08, p = .0495): 0.8 ± 0.03 ms and 0.8 ± 0.03 (12)r ms
Peak density (I Na) (HEK-Nav1.6 GFP, at −10 mV, mean ± SEM (n = 14), DMSO −58.6 ± 13.9 (Table 3)): −80.8 ± 12.2 pA/pF and −80.8 ± 12.2 (14) pA/pF
Kinact (HEK-Nav1.6 GFP, mean ± SEM (n = 10), DMSO 5.8 ± 0.4): 6.1 ± 0.5 (10) mV
Steady-state Inactivation (V1/2) (HEK-Nav1.6 GFP, mean ± SEM (n = 10), DMSO −58.9 ± 0.8): −59.3 ± 1.9 (10) mV
Kact (HEK-Nav1.6 GFP, mean ± SEM (n = 12), DMSO 4.3 ± 0.2): 3.9 ± 0.3 (12) mV
Activation (V1/2) (HEK-Nav1.6 GFP, mean ± SEM (n = 12), DMSO −21.8 ± 1.3): −20.5 ± 1.2 (12) mV
